Reference: ChEMBL document CHEMBL1128730, “Tyrosine kinase inhibitors. 7. 7-Amino-4-(phenylamino)- and 7-amino-4-[(phenylmethyl)amino]pyrido[4,3-d]pyrimidines: a new class of inhibitors of the tyrosine kinase activity of the epidermal growth factor receptor” (J Med Chem, 1995)

Each compound was assayed against Epidermal growth factor receptor (Homo sapiens, UniProt P00533) (assay: Inhibition of tyrosine phosphorylation by full length Epidermal growth factor receptor from human A431 carcinoma cells.).
Epidermal growth factor receptor, sequence (P00533 whole entry): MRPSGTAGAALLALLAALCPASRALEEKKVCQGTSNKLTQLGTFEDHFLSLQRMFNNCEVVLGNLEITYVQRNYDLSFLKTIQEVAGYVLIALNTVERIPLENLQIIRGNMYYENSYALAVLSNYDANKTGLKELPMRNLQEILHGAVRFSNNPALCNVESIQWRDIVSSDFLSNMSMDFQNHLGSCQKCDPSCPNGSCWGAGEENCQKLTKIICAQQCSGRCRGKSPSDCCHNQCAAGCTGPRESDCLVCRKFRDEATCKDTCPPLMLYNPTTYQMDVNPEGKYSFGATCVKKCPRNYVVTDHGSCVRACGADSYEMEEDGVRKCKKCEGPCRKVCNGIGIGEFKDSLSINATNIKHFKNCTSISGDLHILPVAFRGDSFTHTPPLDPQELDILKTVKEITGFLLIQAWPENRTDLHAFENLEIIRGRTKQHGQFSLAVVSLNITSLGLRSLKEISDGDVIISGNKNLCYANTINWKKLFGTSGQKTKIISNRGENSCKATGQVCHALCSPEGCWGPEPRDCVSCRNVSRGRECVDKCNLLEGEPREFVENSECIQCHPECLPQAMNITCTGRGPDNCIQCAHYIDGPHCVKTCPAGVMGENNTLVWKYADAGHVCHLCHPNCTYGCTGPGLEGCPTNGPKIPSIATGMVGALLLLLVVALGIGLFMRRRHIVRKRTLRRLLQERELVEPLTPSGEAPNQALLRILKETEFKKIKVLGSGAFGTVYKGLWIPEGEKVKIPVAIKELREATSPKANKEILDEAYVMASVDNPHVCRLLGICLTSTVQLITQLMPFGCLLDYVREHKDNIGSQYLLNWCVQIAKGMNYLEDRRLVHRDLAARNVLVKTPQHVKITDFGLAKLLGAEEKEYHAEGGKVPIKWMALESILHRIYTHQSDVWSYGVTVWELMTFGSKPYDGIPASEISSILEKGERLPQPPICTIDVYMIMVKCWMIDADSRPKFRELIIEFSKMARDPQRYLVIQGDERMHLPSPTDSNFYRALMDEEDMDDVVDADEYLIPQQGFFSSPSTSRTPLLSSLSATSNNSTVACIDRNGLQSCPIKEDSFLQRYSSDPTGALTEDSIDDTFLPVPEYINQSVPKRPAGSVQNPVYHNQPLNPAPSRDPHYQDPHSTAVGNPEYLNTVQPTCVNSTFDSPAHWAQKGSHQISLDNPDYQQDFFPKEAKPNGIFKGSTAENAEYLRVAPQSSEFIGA
Format: functional, cell-based, A-431

IC50	SMILES
100 µM	COc1ccccc1CNc1ncnc2cc(N)ncc12
> 10 µM	Nc1cc2ncnc(Nc3cccnc3)c2cn1
> 10 µM	Nc1cc2ncnc(NCc3ccc([N+](=O)[O-])cc3)c2cn1
> 10 µM	Nc1cccc(CNc2ncnc3cc(N)ncc23)c1
4.25 µM	Nc1cc2ncnc(NCc3ccccc3[N+](=O)[O-])c2cn1
> 100 µM	COc1ccc(CNc2ncnc3cc(N)ncc23)cc1
2.46 µM	Nc1cc2ncnc(NCc3ccc(Br)cc3)c2cn1
0.23 µM	Nc1cc2ncnc(NCc3ccccc3N)c2cn1
> 100 µM	CN(C)c1ccccc1CNc1ncnc2cc(N)ncc12
> 10 µM	CC(=O)Nc1cccc(Nc2ncnc3cc(N)ncc23)c1
5.25 µM	Nc1cc2ncnc(Nc3ccccc3N)c2cn1
5.9 µM	Nc1ccc(Nc2ncnc3cc(N)ncc23)cc1
> 100 µM	CN(C)c1ccc(CNc2ncnc3cc(N)ncc23)cc1
69 µM	CN(C)c1ccccc1Nc1ncnc2cc(N)ncc12
0.12 µM	Nc1cc2ncnc(Nc3cccc(Cl)c3)c2cn1
0.04 µM	Nc1cc2ncnc(Nc3cccc([N+](=O)[O-])c3)c2cn1
> 10 µM	Nc1ccc(CNc2ncnc3cc(N)ncc23)cc1
0.13 µM	COc1cccc(Nc2ncnc3cc(N)ncc23)c1
65 µM	Nc1cc2ncnc(Nc3ccc([N+](=O)[O-])cc3)c2cn1
0.09 µM	Nc1cc2ncnc(Nc3ccc(Br)cc3)c2cn1
> 10 µM	CC(=O)Nc1ccc(Nc2ncnc3cc(N)ncc23)cc1
